Patent US9278107B2, “Antibacterial agent composition and antiviral agent composition comprising silicon-containing compound; antibacterializing method, cleaning/mouth rinsing method; method for fixing antibacterial agent and antiviral agent” (Hiroshima University, priority 2008, dated 2016)

Legend:
[1] = tested on: Escherichia coli WP2uvrA and Salmonella typhimurium TA series strains (TA100, TA1535, TA98 and TA1537); conditions: positive control
[2] = tested on: influenza virus A A/swan/Shimane/499/83(H5N3); type: cell-based, influenza virus A (avian); conditions: reacted with virus at room temperature for 3 minutes, diluted with DMEM, MDCK(+) cells, TCID50; (20 ppm)
[3] = tested on: atypical (swine) influenza virus (type H1N1); type: cell-based

`NC(=O)C(=Cc1ccc([N+](=O)[O-])o1)c1ccco1` [2-(2-furyl)-3-(5-nitro-2-furyl)acrylamide] was tested, and the “number of reverse mutant colonies as compared with negative control” value (from here on “number … compared with negative control”) [1] was “remarkable increase”.
`Cl.Nc1c2ccccc2nc2ccccc12` [9-Aminoacridine hydrochloride] was tested, and the “number … compared with negative control” value [1] was “remarkable increase”.
In the case of `CCCCCCCCCCCCCCCCCC[N+](C)(C)CCC[Si](OCC)(OCC)OCC.[Cl-]` [EtAC, octadecyldimethyl(3-triethoxysilylpropyl)ammonium chloride], the “EtAC dilution at which it is still effective” value [2] is reported as 0.002% and the virus inactivating effect [3] is reported as “highly significant effects are found”.
`[N-]=[N+]=[N-]` [sodium azide] was tested, and the “number … compared with negative control” value [1] was “remarkable increase”.
